Data as given in article PMC11532403 (Signal Transduction and Targeted Therapy, 2024).
Values joined by “and” are separate entries in the source; they are usually repeats but may differ in a detail not shown here. Equal values may be shown once.

Tested on: RET-altered solid tumors
Experiment: Phase 1 trial: anti-tumor efficacy (RECIST 1.1)
Type: in vivo, human
Procedure: Radiologic tumor assessments were conducted by computed tomography (CT) or magnetic resonance imaging (MRI) of brain, chest, abdomen, and pelvis at baseline, 4 weeks for the first tumor assessment, then every 8 weeks (± 7 days) for 1 year, and every 12 weeks (± 7 days) thereafter. MTC patients were longitudinally monitored for serum calcitonin and carcinoembryonic antigen (CEA) levels.

[1] = All patients, 160 mg BID (n = 95)
[2] = All patients, 200 mg BID (n = 10)
[3] = All patients, all doses (n = 116)
[4] = Previously treated, 160 mg BID (n = 58)
[5] = Previously treated, 200 mg BID (n = 8)
[6] = Previously treated, all doses (n = 76)
[7] = RP2D 160 mg BID, MTC, all (n = 23)
[8] = RP2D 160 mg BID, NSCLC, all (n = 64)
[9] = RP2D 160 mg BID, PTC, all (n = 7)
[10] = RP2D, MTC, previously treated (n = 15)
[11] = RP2D, MTC, treatment-naïve (n = 8)
[12] = RP2D, NSCLC, previously treated (n = 36)
[13] = RP2D, NSCLC, treatment-naïve (n = 28)
[14] = RP2D, PTC, previously treated (n = 6)

COc1ccc(CN2C3CC2CN(c2ccc(-c4cc(N5CC(C)(O)C5)cn5ncc(C#N)c45)cn2)C3)cn1 [SY-5007, 6-(3-hydroxy-3-methylazetidin-1-yl)-4-(6-(6-((6-methoxypyridin-3-yl)methyl)-3,6-diazabicyclo[3.1.1]heptan-3-yl)pyridin-3-yl)pyrazolo[1,5-a]pyridine-3-carbonitrile]
Patients with target tumor shrinkage (111/116): 95.7% | Progressive disease (All patients, 20 mg QD to 120 mg BID cohorts): 0 (0.0) n (%) | DCR (95% CI) (All patients, 20 mg QD to 120 mg BID cohorts, 20 mg once daily): 100.0 (2.5–100.0) % | Median TTR (95% CI) (All patients, 20 mg QD to 120 mg BID cohorts, 20 mg twice daily): 6.73 (NE-NE) months | DCR (95% CI) (All patients, 20 mg QD to 120 mg BID cohorts, 40 mg twice daily): 100.0 (29.2–100.0) % | Median TTR (95% CI) (All patients, 20 mg QD to 120 mg BID cohorts, 120 mg twice daily): 8.37 (1.18-NE) months | DCR (95% CI) [1]: 94.7 (88.1–98.3) % | Median DoR (95% CI) [1]: 13.0 (12.8-NE) months | Median PFS (95% CI) [1]: 15.4 (13.8-NE) months | Median TTR (95% CI) [1]: 2.79 (2.75–4.63) months | ORR (95% CI) [1]: 58.9 (48.4–68.9) % | Partial response [1]: 56 (58.9) n (%) | Progressive disease [1]: 5 (5.3) n (%) | Stable disease [1]: 34 (35.8) n (%) | DCR (95% CI) [2]: 100.0 (69.2–100.0) % | Median TTR (95% CI) [2]: 1.14 (0.91-NE) months | ORR (95% CI) [2]: 60.0 (26.2–87.8) % | Partial response [2]: 6 (60.0) n (%) | Progressive disease [2]: 0 (0.0) n (%) | Stable disease [2]: 4 (40.0) n (%) | DCR (95% CI) [3]: 95.7 (90.2–98.6) % | Median DoR (95% CI) [3]: 19.9 months and 19.9 (12.8–NE) months | Median PFS (95% CI) [3]: 21.1 months and 21.1 (13.8–NE) months | Median TTR (95% CI) [3]: 2.82 (2.75–4.66) months | ORR (95% CI) [3]: 57.8 (48.2–66.9) % | Partial response [3]: 67 (57.8) n (%) | Progressive disease [3]: 5 (4.3) n (%) | Stable disease [3]: 44 (37.9) n (%) | Estimated 12-month PFS rate (MTC at RP2D): 85.2% | Estimated 6-month PFS rate (NSCLC at 160 mg BID): 89.6% | Estimated 12-month PFS rate (NSCLC at 160 mg BID): 67.5% | Estimated 12-month PFS rate (PTC at RP2D): 100.0% | Median PFS (95% CI) (Previously treated, 20 mg QD (n = 1)): 4.83 (NE-NE) months | Progressive disease (Previously treated, 20 mg QD to 120 mg BID cohorts): 0 (0.0) n (%) | DCR (95% CI) (Previously treated, 20 mg QD to 120 mg BID cohorts, 20 mg once daily): 100.0 (2.5–100.0) % | Median TTR (95% CI) (Previously treated, 20 mg QD to 120 mg BID cohorts, 20 mg twice daily): 6.73 (NE-NE) months | DCR (95% CI) (Previously treated, 20 mg QD to 120 mg BID cohorts, 40 mg twice daily): 100.0 (15.8–100.0) % | DCR (95% CI) (Previously treated, 20 mg QD to 120 mg BID cohorts, 80 mg twice daily): 100.0 (29.2–100.0) % | Median TTR (95% CI) (Previously treated, 20 mg QD to 120 mg BID cohorts, 120 mg twice daily): 8.37 (1.18-NE) months | DCR (95% CI) [4]: 94.8 (85.6–98.9) % | Median DoR (95% CI) [4]: 13.0 (9.23-NE) months | Median PFS (95% CI) [4]: 15.4 (13.8-NE) months | Median TTR (95% CI) [4]: 4.56 (2.75-NE) months | ORR (95% CI) [4]: 51.7 (38.2–65.0) % | Partial response [4]: 30 (51.7) n (%) | Progressive disease [4]: 3 (5.2) n (%) | Stable disease [4]: 25 (43.1) n (%) | DCR (95% CI) [5]: 100.0 (63.1–100.0) % | Median TTR (95% CI) [5]: 3.15 (0.91-NE) months | ORR (95% CI) [5]: 50.0 (15.7–84.3) % | Partial response [5]: 4 (50.0) n (%) | Progressive disease [5]: 0 (0.0) n (%) | Stable disease [5]: 4 (50.0) n (%) | DCR (95% CI) [6]: 96.1 (88.9–99.2) % | Median DoR (95% CI) [6]: 19.9 (12.8-NE) months | Median TTR (95% CI) [6]: 4.63 (2.75-NE) months | ORR (95% CI) [6]: 51.3 (39.6–63.0) % | Partial response [6]: 39 (51.3) n (%) | Progressive disease [6]: 3 (3.9) n (%) | Stable disease [6]: 34 (44.7) n (%) | Patients with progression or death (RET fusion-positive NSCLC at 160 mg BID): 26.6% | DCR (95% CI) [7]: 91.3 (72.0-98.9) % | Median TTR (95% CI) [7]: 4.66 (2.75-NE) months | ORR (95% CI) [7]: 52.2 (30.6-73.2) % | Partial response [7]: 12 (52.2) n (%) | Progressive disease [7]: 2 (8.7) n (%) | Stable disease [7]: 9 (39.1) n (%) | DCR (95% CI) [8]: 96.9 (89.2-99.6) % | Median DoR (95% CI) [8]: 13.0 months and 13.0 (9.26-NE) months | Median PFS (95% CI) [8]: 15.4 months and 15.4 (10.1-NE) months | Median TTR (95% CI) [8]: 2.75 (1.01-2.89) months | ORR (95% CI) [8]: 64.1 (51.1-75.7) % | Partial response [8]: 41 (64.1) n (%) | Progressive disease [8]: 2 (3.1) n (%) | Stable disease [8]: 21 (32.8) n (%) | DCR (95% CI) [9]: 100.0 (59.0-100.0) % | ORR (95% CI) [9]: 42.9 (9.9-81.6) % | Partial response [9]: 3 (42.9) n (%) | Progressive disease [9]: 0 (0.0) n (%) | Stable disease [9]: 4 (57.1) n (%) | DCR (95% CI) [10]: 100.0 (78.2-100.0) % | ORR (95% CI) [10]: 40.0 (16.3-67.7) % | Partial response [10]: 6 (40.0) n (%) | Progressive disease [10]: 0 (0.0) n (%) | Stable disease [10]: 9 (60.0) n (%) | DCR (95% CI) [11]: 75.0 (34.9-96.8) % | Median TTR (95% CI) [11]: 2.75 (0.85-NE) months | ORR (95% CI) [11]: 75.0 (34.9-96.8) % | Partial response [11]: 6 (75.0) n (%) | Progressive disease [11]: 2 (25.0) n (%) | Stable disease [11]: 0 (0.0) n (%) | DCR (95% CI) [12]: 94.4 (81.3-99.3) % | Median DoR (95% CI) [12]: 13.0 (9.20-NE) months | Median PFS (95% CI) [12]: 13.8 (10.1-NE) months | Median TTR (95% CI) [12]: 2.75 (0.98-NE) months | ORR (95% CI) [12]: 58.3 (40.8-74.5) % | Partial response [12]: 21 (58.3) n (%) | Progressive disease [12]: 2 (5.6) n (%) | Stable disease [12]: 13 (36.1) n (%) | DCR (95% CI) [13]: 100.0 (87.7-100.0) % | Median DoR (95% CI) [13]: 14.5 (9.26-NE) months | Median PFS (95% CI) [13]: 15.5 (9.23-NE) months | Median TTR (95% CI) [13]: 1.11 (0.91-3.15) months | ORR (95% CI) [13]: 71.4 (51.3-86.8) % | Partial response [13]: 20 (71.4) n (%) | Progressive disease [13]: 0 (0.0) n (%) | Stable disease [13]: 8 (28.6) n (%) | DCR (95% CI) [14]: 100.0 (54.1-100.0) % | ORR (95% CI) [14]: 50.0 (11.8-88.2) % | Partial response [14]: 3 (50.0) n (%) | Progressive disease [14]: 0 (0.0) n (%) | Stable disease [14]: 3 (50.0) n (%) | DCR (95% CI) (RP2D, PTC, treatment-naïve (n = 1)): 100.0 (2.5-100.0) %
